From paper PMC7221699, “Synthesis and Cytotoxic Analysis of Novel Myrtenyl Grafted Pseudo-Peptides Revealed Potential Candidates for Anticancer Therapy” (Molecules, 2020)

Columns and labels:
[1] = system: human colon adenocarcinoma (HT-29) cells; test: Sulforhodamine B (SRB) cell cytotoxicity assay, HT-29 cells; assay type: cell-based; conditions: HT29 cells; for Emax: maximal drug effect on viability rate, 1 = no effect, 0 = fully cytotoxic; for EC50: Homo sapiens, HT-29, 24 h of drug treatment, SRB assay
Procedure: (§1) […] The cell lines were expanded, cultured, and maintained at 37 °C in a humid atmosphere with 5% CO2 in modified Dulbecco’s medium (Thermo Fisher Scientific, Waltham, MA, USA), with 10% FBS (Thermo Fisher Scientific, Waltham, MA, USA) and 100 U/mL of the antibiotic mixture penicillin/streptomycin (Thermo Fisher Scientific, Waltham, MA, USA).
(§2) We evaluated the cytotoxicity effects of novel Myrtenal hybrids against on cells by the sulforhodamine B (SRB) assay. Initially, the cells were seeded in 96-well microplates at a density of 2 × 10^4 cells/well. All compounds were initially dissolved in 100% of methanol and prediluted to reduce methanol concentration to 1% or lower in culture medium and added to the cells at different concentrations for 24 h. Then, cells were fixed by adding 10% (w/v) trichloroacetic acid (TCA) (Winkler) in each well and were stained with 0.057% (w/v) Sulforhodamine B (SRB) (Sigma-Aldrich) in 1% (v/v) acetic acid (Winkler). The bound dye was dissolved in 10 mM Tris base (Sigma-Aldrich), and the absorbance was determined at 510 nm using a multiplate reader (Synergy 2, Biotek Instruments). Percentage cell viability was determined using the formula: […]. The absorbance from the wells of the negative control (1% methanol in culture medium) was considered as the 100% viability. EC50 values were determined by regression analysis (R^2 > 0.95) of the corresponding dose response curves of percentage of cell viability and concentration of the compounds. Emax, the maximum effect of the drug at the highest tested concentration were determined using an online calculator (http://www.grcalculator.org/). Emax lies between 1 and 0; a value of 0 corresponds to a fully cytotoxic response.

[2] = system: human dermal fibroblast (HDF) cells; test: Sulforhodamine B (SRB) cell cytotoxicity assay, HDF non-cancer cells; assay type: cell-based; conditions: 60, 120 and 240 ng/mL, 24 h
Procedure: as §1, §2

[3] = system: human breast adenocarcinoma (MCF-7) cells; test: Sulforhodamine B (SRB) cell cytotoxicity assay, MCF-7 cells; assay type: cell-based; conditions: for EC50: Homo sapiens, MCF7, 24 h of drug treatment, SRB assay; for Emax: maximal drug effect on viability rate, 1 = no effect, 0 = fully cytotoxic
Procedure: as §1, §2

[4] = system: human gastric adenocarcinoma (AGS) cells; test: Sulforhodamine B (SRB) cell cytotoxicity assay, AGS cells; assay type: cell-based; conditions: for cytotoxicity against AGS cells at the lowest concentration: 60 ng/mL; for cytotoxicity against AGS cells at the lowest concentration / viability at 0.24 µg/mL: 24 h; for Emax / EC50: AGS cells; for Emax: maximal drug effect on viability rate, 1 = no effect, 0 = fully cytotoxic; for EC50 / viability at 0.24 µg/mL: Homo sapiens; for EC50: 24 h of drug treatment, SRB assay; for cytotoxicity to AGS cells (preliminary screen): 60, 120 and 240 ng/mL, 24 h of incubation; for viability at 0.24 µg/mL: AGS, 240 ng/mL, Figure 2, read-out: viability (%) in the AGS screen
Procedure: as §1, §2

[5] = system: primary CD4+ T cells; test: Viability and cell count of activated CD4+ T lymphocytes per proliferation cycle (flow cytometry); assay type: cell-based, human; conditions: compounds added at EC25 48 h after activation, incubated four days; for viability of non-proliferating CD4+ T cells: cycle 0 and 1; for viability / number of proliferating CD4+ T cells: cycle 2, 3 and 4
Procedure: CD4+ T cells were first stained with a cell tracer dye, a fluorescent reagent that diffuses into cells and binds covalently to intracellular amines, and then with a Live/Dead dye that permeates into cells with damaged membranes, while live cells remain unstained. In addition, counting beads were added into each sample to calculate the exact number of cells per cell cycle (Figure 4A). Then, in order to induce proliferation, fluorescent-labelled CD4+ T cells were activated with anti-CD3/CD28 beads, which mimic physiological T cell receptor triggering and co-stimulation in T lymphocytes. After activation, a proportion of cells proliferated, while some stayed in a non-proliferative state. […] Myrtenyl derivatives were added after the second day of culture to evaluate their effect on non-proliferating CD4+ T cells at cycle 0 and 1 and in proliferating cells in cycle 2, 3, and 4. Live CD4+ T cells activated in the presence of five Myrtenyl derivatives were counted and results were normalized with the control sample per cell cycle.
CD4+ T cells were obtained from peripheral blood from healthy volunteers. Blood samples were diluted 1:2 with PBS before adding 50 μL/mL of RosettSep Human CD4+ T cell enrichment cocktail (STEM CELL) for 20 min at room temperature. After incubation, samples were diluted again 1:4 with PBS and CD4+ T cells were obtained directly from the mononuclear fraction obtained after Ficoll–Hypaque density gradient centrifugation. CD4+ T cells were washed twice, counted, and resuspended in PBS. CD4+ T cells were then stained with 1 μM Cell Trace Violet Cell Proliferation Kit (Invitrogen, Thermo Fisher Scientific, Waltham, MA, USA) for 20 min at 37 °C, protected from light. Unbound dye was quenched by adding cold FCS for 5 min at 4 °C. CD4+ T cells were washed two times and resuspended in X–VIVO (Gibco) with IL–2 (50 U/mL, ProLeukin). Cells (2 × 10^5) were activated for 48 h with CD3/CD28 Dynabeads (Invitrogen) prior to adding the compounds. After 48 h, compounds were added (EC25) and incubated for four days. To analyze proliferation and viability, cells were stained with Live/Dead fixable far red dead cell staining kit (Invitrogen) for 30 min at 4 °C and counting beads were added before acquisition. Cells were acquired on an LSRFortessa X20 (BD) within 24 h. Data were analyzed using FlowJo (Tree Star, Inc., Ashland, OR, USA).

[6] = system: AGS, MCF-7 and HT-29 cells; test: SRB cytotoxicity assay, summary over the three cancer cell lines; assay type: cell-based; conditions: Homo sapiens, MCF-7 and HT-29, 24 h, read-out: EC50 range over the cancer cell lines
Procedure: as §1
as §2, with “All compounds were initially dissolved in 100% of methanol and prediluted to reduce methanol concentration to 1% or lower in culture medium and added to the cells at different concentrations for 24 h. Then, cells were fixed by adding 10% (w/v) trichloroacetic acid (TCA) (Winkler) in each well and were stained with 0.057% (w/v) Sulforhodamine B (SRB) (Sigma-Aldrich) in 1% (v/v) acetic acid (Winkler).” left out, “Emax lies between 1 and 0; a value of 0 corresponds to a fully cytotoxic response.” left out

Structure (SMILES)	Emax [1]	EC50 [1] [nM]	effect on HDF viability (preliminary screen) [2]	EC50 [3] [nM]	Emax [3]	cytotoxicity against AGS cells at the lowest concentration [4]	Emax [4]	EC50 [4] [nM]	viability of non-proliferating CD4+ T cells at cycle 0 [5]	viability of non-proliferating CD4+ T cells [5]	viability / number of proliferating CD4+ T cells [5]	cytotoxicity to AGS cells (preliminary screen) [4]	EC50 [6] [nM]	viability of proliferating CD4+ T cells at cycle 4 ([5]; cycle 4)	viability at 0.24 µg/mL [4] [%]
CC(=O)N(Cc1ccccc1)C(C(=O)NC1CCCCC1)C1=CC[C@H]2C[C@@H]1C2(C)C (stereo partly drawn) [1a, 2-(N-benzylacetamido)-N-cyclohexyl-2-((1R,5S)-6,6-dimethylbicyclo[3.1.1]hept-2-en-2-yl)acetamide]	0.1	68	without affecting HDF viability	65	0.1	high cytotoxicity	0.1	46	more cytotoxic than 3c	reduced viability	reduced viability	–	–	–	–
CC1(C)[C@H]2CC=C(C(=O)N(CC#CC#CCN(CC(=O)NC3CCCCC3)C(=O)C3=CC[C@H]4C[C@@H]3C4(C)C)CC(=O)NC3CCCCC3)[C@@H]1C2 [4a, (1R,1′R,5S,5′S)-N,N′-(hexa-2,4-diyne-1,6-diyl)-bis{N-[2-(cyclohexylamino)-2-oxoethyl]-6,6-dimethylbicyclo [3.1.1]hept-2-ene-2-carboxamide}]	–	–	–	–	–	–	–	–	–	–	–	not cytotoxic	–	–	–
CC1(C)[C@H]2CC=C(Cn3cc(CN(CC(=O)NC4CCCCC4)C(=O)C4=CC[C@H]5C[C@@H]4C5(C)C)nn3)[C@@H]1C2 [3d, (1R,5S)-N-[2-(cyclohexylamino)-2-oxoethyl]-N-({1-[((1R,5S)-6,6-dimethylbicyclo[3.1.1]hept-2-en-2-yl)methyl]-1H-1,2,3-triazol-4-yl}methyl)-6,6-dimethylbicyclo[3.1.1]hept-2-ene-2-carboxamide]	0.1	33	without affecting HDF viability	22	0.1	high cytotoxicity	0.1	33	did not reduced viability	–	–	–	22 to 33	lowest capacity to reduce viability	–
C#CCN(C(C)=O)C(C(=O)NC1CCCCC1)C1=CC[C@H]2C[C@@H]1C2(C)C (mixture of isomers) [1c, N-cyclohexyl-2-((1R,5S)-6,6-dimethylbicyclo[3.1.1]hept-2-en-2-yl)-2-(N-(prop-2-yn-1-yl)acetamido) acetamide]	–	–	–	–	–	–	–	–	–	–	–	–	–	–	40
CC1(C)[C@H]2CC=C(C(=O)N(CC(=O)NC3CCCCC3)Cc3cn(-c4cccc(Cl)c4)nn3)[C@@H]1C2 [3b, (1R,5S)-N-{[1-(3-chlorophenyl)-1H-1,2,3-triazol-4-yl]methyl}-N-[2-(cyclohexylamino)-2-oxoethyl]-6,6-dimethylbicyclo[3.1.1]hept-2-ene-2-carboxamide]	0.4	21 ± 7	without affecting HDF viability	24 ± 7	0.5	high cytotoxicity	0.2	49 ± 8	–	did not reduce viability	able to reduce number of proliferating cells	–	–	–	–
CC(=O)N(CC#CC#CCN(C(C)=O)C(C(=O)NC1CCCCC1)C1=CC[C@H]2C[C@@H]1C2(C)C)C(C(=O)NC1CCCCC1)C1=CC[C@H]2C[C@@H]1C2(C)C (mixture of isomers) [4b, 2,2′-[hexa-2,4-diyne-1,6-diylbis(acetylazanediyl)]-bis[N-cyclohexyl-2-((1R,5S)-6,6-dimethylbicyclo[3.1.1]hept-2-en-2-yl)acetamide]]	–	–	–	–	–	–	–	–	–	–	–	not cytotoxic	–	–	–
C#CCN(CC(=O)NC1CCCCC1)C(=O)C1=CC[C@H]2C[C@@H]1C2(C)C [2c, (1R,5S)-N-[2-(cyclohexylamino)-2-oxoethyl]-6,6-dimethyl-N-(prop-2-yn-1-yl)bicyclo[3.1.1]hept-2-ene-2-carboxamide]	–	–	–	–	–	–	–	–	–	–	–	–	–	–	60
Cc1ccc(-n2cc(CN(CC(=O)NC3CCCCC3)C(=O)C3=CC[C@H]4C[C@@H]3C4(C)C)nn2)cc1 [3a, (1R,5S)-N-[2-(cyclohexylamino)-2-oxoethyl]-6,6-dimethyl-N-{[1-(p-tolyl)-1H-1,2,3-triazol-4-yl]methyl} bicyclo[3.1.1]hept-2-ene-2-carboxamide]	0.3	59	without affecting HDF viability	24	0.3	high cytotoxicity	0.1	50	more cytotoxic than 3c	reduced viability	reduced viability	–	–	–	–
COc1ccc(-n2cc(CN(CC(=O)NC3CCCCC3)C(=O)C3=CC[C@H]4C[C@@H]3C4(C)C)nn2)cc1 [3c, (1R,5S)-N-[2-(cyclohexylamino)-2-oxoethyl]-N-{[1-(4-methoxyphenyl)-1H-1,2,3-triazol-4-yl]methyl}-6,6-dimethylbicyclo[3.1.1]hept-2-ene-2-carboxamide]	0.4	38	without affecting HDF viability	38	0.4	high cytotoxicity	0.1	75	–	reduced viability	reduced viability	–	–	–	–
CC(=O)OC[C@@H]1O[C@H](n2cc(CN(CC(=O)NC3CCCCC3)C(=O)C3=CC[C@H]4C[C@@H]3C4(C)C)nn2)[C@@H](OC(C)=O)[C@H](OC(C)=O)[C@H]1OC(C)=O [3e, (2S,3S,4R,5S,6S)-2-(acetoxymethyl)-6-[4-({(1R,5S)-N-[2-(cyclohexylamino)-2-oxoethyl]-6,6-dimethylbicyclo [3.1.1]hept-2-ene-2-carboxamido}methyl)-1H-1,2,3-triazol-1-yl]tetrahydro-2H-pyran-3,4,5-triyl triacetate]	–	–	–	–	–	low activity	–	–	–	–	–	–	–	–	–
